According to patent US4902678A, “Anti-viral compositions” (priority 1988, dated 1990):

Experiments:
[1] = tested on: HSV-2-EL 1; settings: Table 3, HFF cells, G* 2.0 μg/ml, PAA 76 μg/ml, alone or combined; for Virus titer: no-drug control 170
Description: (§1) Human fetal fibroblasts (HFF) derived from fetal tissues were used in this study. Cells were grown and maintained in Basal Medium Eagle (BME) supplemented with 0.112% sodium bicarbonate, 2mML-glutamine, 2mg % Neomycin and 20% (vol/vol) calf serum.
(§2) HSV-2-EL 1, HSV-2-EL 3, HSV-2-EL 4, HSV-2-EL 6, HSV-1-EL 11 and HSV-1-227 are recent clinical isolates.
(§3) A viral plaque titration method (Roizman and Roane, 1961) was used to deteremine the titer of the HSV strain. Tissue culture dishes (35 by 10mm, Corning) were seeded with cells and used for assays when they were approximately 75% monolayer. Volumes (0.2ml) of logarithmic dilutions of the virus strain were inoculated onto each of two tissue culture dishes and adsorbed for 1 hr with intermittent shaking, the inoculum was removed and 2ml of 20% BME containing 0.5% human immune serum globulin was added. After a 48 hr. incubation period at 36° C. in a 5% CO2 atmosphere, the overlay medium was removed, and the cell sheets were stained with a 0.05% aqueous crystal violet solution. The plaque numbers were counted with the aid of a Nikon profile projector which magnified the dishes 10X. Duplicate results were averaged, and the number of plaque-forming units (PFU) was calculated. The virus titre is thus expressed as a number of plaque forming units to be seen after growth under these conditions.
(§4) Then combinations of the drugs were tested for activity by viral plaque titration, at concentrations which were multiples of the ED-50, of the individual drugs. In combinations involving G*, BVDU and AGC, a concentration ten times that of its ED-50 was used in the combination. This was intended to ensure a concentration sufficiently high to limit the number of partially drug-resistant virus plaques to a small fraction in respect of each drug of the combination. In respect of PAA, a concentration of five times ED-50 was used, to avoid cell toxicity problems. The drugs were individually plaque titrated at the same concentrations for comparison purposes.
(§5) The experiments described in Examples 1 and 2 were essentially repeated, but using the drugs G* and PAA alone and in combinations against samples of HFF cells each infected with one of six HSV strains, two of which were type 1 and four of which were type 2. Plaque titration methods as described above were used.

[2] = tested on: HSV-1-EL 11; settings: Table 3, HFF cells, G* 0.4 μg/ml, PAA 25 μg/ml, alone or combined; for Virus titer: no-drug control 8.0
Description: as §1, §2, §3, §4, §5

[3] = tested on: human herpesviruses; settings: cited from earlier work
[4] = tested on: herpes virus-specific DNA-polymerase (DP); settings: hypothesis on mode of action; cited from earlier work
[5] = topical formulation, drug concentrations in excess of 100mM; cited from earlier work
[6] = tested on: HSV-2-EL 3; test: Viral plaque titration, HSV-2-EL 3 in HFF cells; settings: Table 3, G* 2.0 μg/ml, PAA 82 μg/ml, alone or combined; for Virus titer: no-drug control 77
Description: as §1, §2, §3, §4, §5

[7] = tested on: HSV mutants lacking the ability to induce DP (DP-mutants); settings: cited from earlier work
[8] = tested on: HSV-2-EL 4; test: Viral plaque titration, HSV-2-EL 4 in HFF cells; settings: alone or combined; for Virus titer: no-drug control 750
Description: as §1, §2, §3, §4
(§6) In this example, combinations of G* and phosphonoformic acid PFA were tested, by plaque titration methods, for activity against a variety of herpesvirus strains in HFF cells, using procedures previously described. A stock solution of PFA was made up ahead of time, by dissolving 3 mg PFA in 1 ml of 20% BME, and stored at -20° C. It was appropriately diluted in 20% BME just before usage. Two herpesvirus type 2 strains and one herpesvirus type 1 strain were tested.
as §5

[9] = tested on: HSV-1-Patton; test: Plaque reduction / viral plaque titration, HSV-1-Patton in HFF cells
Description: as §1, §3
As antiviral drugs in these experiments, there were used acycloguanosine (ACG), phosphonoacetic acid (PAA), bromovinyl deoxyuridine (BVDU), phosphonoformic acid (PFA) and 9-[[2-hydroxy-1-(hydroxymethyl)ethoxy]methyl]guanine (G*). Stock solutions, 3mg/ml, of each drug were prepared as follows, kept at -20° C., and appropriate dilutions thereof were made in 20% BME just before usage:
In order to make comparisons between the activities of the various drugs and combinations, experiments were conducted by plaque titration to determine for each drug its viral ED-50 (i.e. the concentration thereof which inhibits HSV plaque formation by 50% in the HFF cells, as compared with cell cultures in the absence of the drug). For this purpose, tissue culture dishes (35 by 10 mm) with HFF cell monolayers at 75% confluence were inoculated with approximately 50 plaque-forming units of virus per 0.2 ml, and the virus was allowed to adsorb for 1 hr with intermittent shaking. After removal of the inoculum, 2 ml of 20% BME with 0.5% immune globulin and threefold dilutions of the appropriate drug were added to duplicate dishes. One set of dishes received no drug and was later used for the "no-drug control". After a 48 hr incubation period at 36° C. in a 5% CO2 atmosphere, the overlay medium was removed, the cells were stained as described above, and plaques were counted. After averaging the counts of duplicate plates, the fraction of plaques emerging in the presence of each drug dilution was calculated as a percent of the control. Each drug titration was plotted on semilogarithmic graph paper, with the number of plaques per dish as vertical axis and the drug concentration as horizontal axis. The viral ED-50 concentration was that amount of drug per ml of overlay medium that inhibited plaque numbers by 50%, compared with no-drug controls, and this was read off the graphic plot of the data.
Then combinations of the drugs were tested for activity by viral plaque titration, at concentrations which were multiples of the ED-50, of the individual drugs. In combinations involving G*, BVDU and AGC, a concentration ten times that of its ED-50 was used in the combination. […] In respect of PAA, a concentration of five times ED-50 was used, to avoid cell toxicity problems.

[10] = tested on: HSV-2-EL 6; test: Viral plaque titration, HSV-2-EL 6 in HFF cells; settings: alone or combined
Description: as §1, §2, §3, §4, §6, §5

[11] = tested on: HSV-1-227; test: Viral plaque titration, HSV-1-227 in HFF cells; settings: Table 3, G* 2.0 μg/ml, PAA 80 μg/ml, alone or combined; for Virus titer: no-drug control 28
Description: as §1, §2, §3, §4, §5

[12] = tested on: herpes virus-specific thymidine kinase (TK); settings: hypothesis on mode of action; cited from earlier work
[13] = tested on: HSV mutants lacking the ability to induce DP (DP-mutants); test: Activity against HSV mutants lacking the ability to induce DP (statement); set-up: species or system Herpes simplex virus
[14] = tested on: normal host cells; settings: cited from earlier work
[15] = tested on: Cellular TK and DP enzymes; settings: cited from earlier work
[16] = Table 3, G* 2.0 μg/ml, PAA 90 μg/ml
[17] = Table 1, multiplicity of infection less than one, G* 1.2, BVDU 0.11, ACG 2.0, PAA 250 μg/ml alone, same concentrations in combinations, no-drug control 147
[18] = Table 1, ratio of control titer to drug titer, G* 1.2, BVDU 0.11, ACG 2.0, PAA 250 μg/ml alone, same concentrations in combinations
[19] = Table 3, G* 0.6 μg/ml, PAA 90 μg/ml
[20] = Table 3, G* 0.6 μg/ml, PAA 90 μg/ml, no-drug control 180
[21] = Table 2, G* 3.0 μg/ml, PFA 80 μg/ml
[22] = Table 2, G* 0.7 μg/ml, PFA 80 μg/ml, alone or combined
[23] = Table 2, G* 0.7 μg/ml, PFA 80 μg/ml, alone or combined, no-drug control 3400
[24] = Table 2, G* 0.7 μg/ml, PFA 80 μg/ml
[25] = Table 2, G* 0.7 μg/ml, PFA 80 μg/ml, no-drug control 150

Q: With `O=C(O)CP(=O)(O)O` [PAA, phosphonoacetic acid] as the compound, how does the Fold titer reduction [1] read?
A: 500 fold

Q: And the Virus titer [1]?
A: 0.34 pfu/ml × 10^5

Q: What about the Fold titer reduction [2] of the same compound?
A: 2.9 fold

Q: And the Virus titer [2]?
A: 2.8 pfu/ml × 10^5

Q: And the “Activity against herpesviruses in prior art” value (shortened to “Activity against herpesviruses”) [3]?
A: some demonstrated activity against human herpesviruses

Q: And the “Interaction with viral DNA polymerase” value [4]?
A: interference with viral DNA polymerase, not viral thymidine kinase

Q: What about the “Skin irritation” value [5] of the same compound?
A: skin irritant

Q: What about the Fold titer reduction [6] of the same compound?
A: 210 fold

Q: What about the Virus titer [6] of the same compound?
A: 0.36 pfu/ml × 10^5

Q: What about the “Resistance of DP-mutants of HSV to drug” value [7] of the same compound?
A: highly resistant

Q: What about the Fold titer reduction [8, 16] of the same compound?
A: 7500 fold

Q: What about the Virus titer [8, 16] of the same compound?
A: 0.10 pfu/ml × 10^5

Q: What about the Virus titer [9, 17] of the same compound?
A: 3.2 PFU/ml × 10^5

Q: What about the Fold titer reduction [9, 18] of the same compound?
A: 50 fold

Q: What about the Fold titer reduction [10, 19] of the same compound?
A: 5.8 fold

Q: What about the Virus titer [10, 20] of the same compound?
A: 31.0 pfu/ml × 10^5

Q: What about the Fold titer reduction [11] of the same compound?
A: 26 fold

Q: And the Virus titer [11]?
A: 1.1 pfu/ml × 10^5

Q: With `O=CC[C@@H](O)[C@H](O)[C@H](O)CO` [2DB, 2-deoxy-D-glucose] as the compound, how does the “Activity against herpesviruses” value [3] read?
A: some demonstrated activity against human herpesviruses

Q: With `Nc1ncnc2c1ncn2[C@@H]1O[C@H](CO)[C@@H](O)[C@@H]1O` [ara-A, Adenine arabinoside] as the compound, how does the “Activity against herpesviruses” value [3] read?
A: some demonstrated activity against human herpesviruses

Q: With `O=C(O)P(=O)(O)O` [PFA, phosphonoformic acid] as the compound, how does the “Activity against herpesviruses” value [3] read?
A: some demonstrated activity against human herpesviruses

Q: And the “Interaction with viral DNA polymerase” value [4]?
A: interference with viral DNA polymerase, not viral thymidine kinase

Q: And the “Skin irritation” value [5]?
A: do not appear harmful

Q: What about the Fold titer reduction [8, 21] of the same compound?
A: 2,700 fold

Q: What about the Virus titer [8, 21] of the same compound?
A: 0.28 pfu/ml × 10^5

Q: And the Fold titer reduction [9, 22]?
A: 4.5 fold

Q: And the Fold titer reduction ([9]; Table 2, G* 0.7 μg/ml, PFA 80 μg/ml, alone or combined, listed as PFF)?
A: 750 fold

Q: And the Virus titer [9, 23]?
A: 750 pfu/ml × 10^5

Q: What about the Fold titer reduction [10, 24] of the same compound?
A: 3.1 fold

Q: What about the Virus titer [10, 25] of the same compound?
A: 48 pfu/ml × 10^5

Q: Which Virus titer [9, 17] does the source give for `O=c1[nH]c(=O)n([C@H]2C[C@H](O)[C@@H](CO)O2)cc1/C=C/Br` [BVDU, bromovinyl deoxyuridine] here?
A: 2.1 PFU/ml × 10^5

Q: What about the Fold titer reduction [9, 18] of the same compound?
A: 70 fold

Q: What does the source list for `Nc1nc2c(ncn2COC(CO)CO)c(=O)[nH]1` [G*]?
A: Fold titer reduction [1]: 19 fold; Virus titer [1]: 8.9 pfu/ml × 10^5; Fold titer reduction [2]: 22 fold; Virus titer [2]: 0.37 pfu/ml × 10^5; Interaction with viral thymidine kinase [12]: inhibits the activity of the viral thymidine kinase enzyme; Interaction with viral DNA polymerase [4]: not involved in the activity of virus-specific DNA-polymerase; Inhibition of DP-mutants of HSV [13]: able to inhibit HSV mutants lacking the ability to induce DP; Fold titer reduction [6]: 7.7 fold; Virus titer [6]: 10.0 pfu/ml × 10^5; Fold titer reduction [8, 21]: 36 fold; Virus titer [8, 21]: 21 pfu/ml × 10^5; Fold titer reduction [8, 16]: 130 fold; Virus titer [8, 16]: 5.9 pfu/ml × 10^5; Virus titer [9, 17]: 1.1 PFU/ml × 10^5; Fold titer reduction [9, 18]: 130 fold; Fold titer reduction [9, 22]: 24 fold; Virus titer [9, 23]: 140 pfu/ml × 10^5; Fold titer reduction [10, 24]: 3.8 fold; Virus titer [10, 25]: 40 pfu/ml × 10^5; Fold titer reduction [10, 19]: 200 fold; Virus titer [10, 20]: 0.90 pfu/ml × 10^5; Fold titer reduction [11]: 110 fold; Virus titer [11]: 0.25 pfu/ml × 10^5

Q: With `Nc1nc2c(ncn2COCCO)c(=O)[nH]1` [ACG, 9-[2-hydroxyethoxymethyl]guanine] as the compound, how does the “Activity against herpesviruses” value [3] read?
A: relatively high antiviral activity

Q: And the “Interaction with viral thymidine kinase” value [12]?
A: interaction with the herpes virus-specific thymidine kinase (TK) resulting in phosphorylation of the acycloguanosine

Q: And the “Interaction with viral DNA polymerase” value [4]?
A: inhibits the action of the herpes virus-specific DNA-polymerase (DP)

Q: What about the “Toxicity for uninfected cells” value [14] of the same compound?
A: relatively low toxicity for uninfected cells

Q: And the “Resistance of DP-mutants of HSV to drug” value [7]?
A: highly resistant

Q: What about the “Effect on cellular TK and DP enzymes” value [15] of the same compound?
A: only slightly affected

Q: What about the Virus titer [9, 17] of the same compound?
A: 4.7 PFU/ml × 10^5

Q: And the Fold titer reduction [9, 18]?
A: 31 fold

Q: Which “Activity against herpesviruses” value [3] does the source give for `O=c1[nH]c(=O)n([C@H]2C[C@H](O)[C@@H](CO)O2)cc1I` [IDU, 5-iododeoxyuridine] here?
A: effective only against herpes infections of the eyes

Q: And the “Side effects / toxicity to normal cells” value ([14]; prior art)?
A: undesirable side effects, associated with toxicity to normal cells
